Experiment [1] in a line: inhibitors of HIV Env-driven cell fusion, dose response, cherry-pick (AID 652057). Type of experiment: functional, cell-based.
Experiment [2] can be described thus: inhibitors of clade B AD8 Env fusion, dose response, cell-based, cherry-pick (AID 652062).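 Also: luciferase signal from cell-cell fusion driven by HIV-1 clade B AD8 Env; potency is for inhibitors of fusion seen as a drop in luminescence.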 It is filed as functional.
A further experiment deals with Nonstructural protein 1 (Influenza A virus, UniProt Q194T2). Type of experiment: functional, Influenza A virus (A/California/07/2009(H1N1)).
Sequence of Nonstructural protein 1 (Q194T2 whole entry): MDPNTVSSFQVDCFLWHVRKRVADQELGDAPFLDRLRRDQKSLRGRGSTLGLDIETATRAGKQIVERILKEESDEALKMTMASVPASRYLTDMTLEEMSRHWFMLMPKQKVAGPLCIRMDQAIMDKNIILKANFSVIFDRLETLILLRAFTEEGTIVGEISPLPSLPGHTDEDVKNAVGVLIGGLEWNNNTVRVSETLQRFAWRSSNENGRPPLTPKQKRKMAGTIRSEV
The next experiment deals with Cytochrome P450 2C19 (Homo sapiens, UniProt P33261). As to the kind of experiment: Cytochrome panel assay with activity outcomes. Panel member name: p450-cyp2c19 Compounds with AC50 equal or less than 10 uM are considered active. It is filed as functional. Conditions: read-out: AC50.
Sequence of Cytochrome P450 2C19 (P33261 whole entry): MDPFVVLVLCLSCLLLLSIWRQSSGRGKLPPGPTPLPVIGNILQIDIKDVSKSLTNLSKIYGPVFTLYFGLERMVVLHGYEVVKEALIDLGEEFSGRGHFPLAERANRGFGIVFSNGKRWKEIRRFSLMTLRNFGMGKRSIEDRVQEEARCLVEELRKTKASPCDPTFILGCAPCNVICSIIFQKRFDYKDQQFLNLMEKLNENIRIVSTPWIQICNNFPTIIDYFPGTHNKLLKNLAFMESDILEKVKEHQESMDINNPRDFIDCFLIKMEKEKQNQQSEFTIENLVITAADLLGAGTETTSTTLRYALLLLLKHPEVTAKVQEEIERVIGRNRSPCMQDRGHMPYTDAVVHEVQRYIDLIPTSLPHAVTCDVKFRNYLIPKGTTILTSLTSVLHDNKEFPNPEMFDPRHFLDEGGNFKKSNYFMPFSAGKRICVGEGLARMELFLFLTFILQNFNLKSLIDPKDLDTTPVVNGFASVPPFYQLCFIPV
A further experiment is described as follows: cells. It is filed as functional.
The target in experiment [3] is T1, RNA-binding protein pos-1 (Caenorhabditis elegans, UniProt G5EF15).
T1 sequence (G5EF15 whole entry): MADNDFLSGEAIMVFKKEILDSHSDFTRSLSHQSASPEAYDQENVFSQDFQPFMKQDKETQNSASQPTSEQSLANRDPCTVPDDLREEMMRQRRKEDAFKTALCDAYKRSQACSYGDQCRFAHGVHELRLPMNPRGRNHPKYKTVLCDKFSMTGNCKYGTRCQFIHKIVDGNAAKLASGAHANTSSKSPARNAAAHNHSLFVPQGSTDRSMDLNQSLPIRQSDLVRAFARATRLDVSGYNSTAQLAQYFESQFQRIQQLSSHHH
The experiment in a line: inhibitors of POS-1/mex-3 RNA binding, dose response, biochemical, fluorescence polarization (AID 1964).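 Also: purified POS-1 fused to maltose binding protein made in E. coli; potency of compounds blocking POS-1 binding to fluorescent RNA.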 On the technique in general: In fluorescence polarisation assays a small probe gives low polarisation when free and higher when bound to something large.

Experiment [4] addresses T2, Zinc finger protein mex-5 (Caenorhabditis elegans, UniProt Q9XUB2).
T2 sequence (Q9XUB2 whole entry): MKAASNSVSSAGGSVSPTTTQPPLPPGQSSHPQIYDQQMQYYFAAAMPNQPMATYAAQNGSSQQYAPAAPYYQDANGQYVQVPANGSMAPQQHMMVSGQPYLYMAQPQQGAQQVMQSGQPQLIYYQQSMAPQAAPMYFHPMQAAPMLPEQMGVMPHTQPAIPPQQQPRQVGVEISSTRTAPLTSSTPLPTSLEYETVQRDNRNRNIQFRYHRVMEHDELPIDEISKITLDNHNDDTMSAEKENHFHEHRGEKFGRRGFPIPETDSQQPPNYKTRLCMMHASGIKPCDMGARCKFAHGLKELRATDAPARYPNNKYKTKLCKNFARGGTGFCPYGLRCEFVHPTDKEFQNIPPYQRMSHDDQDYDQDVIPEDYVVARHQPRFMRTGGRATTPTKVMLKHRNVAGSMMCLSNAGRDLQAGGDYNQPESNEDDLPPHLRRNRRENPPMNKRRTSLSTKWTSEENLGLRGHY
The experiment in a line: MEX-5/TCR-2 RNA interaction inhibitors, dose response, biochemical, C. elegans, fluorescence polarization (AID 1960).

A further experiment addresses T3, Bcl-2-related protein A1 (Mus musculus, UniProt Q07440).
T3 sequence (Q07440 whole entry): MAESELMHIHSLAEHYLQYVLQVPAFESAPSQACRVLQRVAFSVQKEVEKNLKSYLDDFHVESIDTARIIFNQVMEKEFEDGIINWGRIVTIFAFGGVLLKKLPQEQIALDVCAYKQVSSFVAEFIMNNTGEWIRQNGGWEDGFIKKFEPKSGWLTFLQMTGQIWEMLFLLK
It is filed as functional.

In experiment [5] the target is T4, Ubiquitin-conjugating enzyme E2 N (Homo sapiens, UniProt P61088).
T4 sequence (P61088 whole entry): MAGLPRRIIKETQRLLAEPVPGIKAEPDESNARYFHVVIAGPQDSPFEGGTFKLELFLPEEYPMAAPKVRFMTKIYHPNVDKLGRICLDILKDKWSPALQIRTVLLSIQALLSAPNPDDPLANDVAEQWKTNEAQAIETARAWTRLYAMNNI
Type of experiment: functional.

The target in experiment [6] is T4, Ubiquitin-conjugating enzyme E2 N. Type of experiment: functional. This is another data set of the same source.
Experiment [7] can be described thus: inhibitors of intracellular T. cruzi replication, confirmation, NIH3T3 host cells, beta-gal luminescence (AID 2044).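 Also: intracellular parasites grown in NIH/3T3 mouse fibroblasts as host cells; luminescent beta-galactosidase reporter signal from transgenic T. cruzi replicating inside host cells; inhibitors lower the luminescence signal.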 It is filed as functional, cell-based.
Experiment [8] can be described thus: cytotoxicity toward NIH3T3 fibroblasts, dose response, counter-screen, cell-based, ATP luminescence, mouse fibroblasts (AID 2010).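 Also: cells exposed to compound for about 90 hours before reading.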 It is filed as functional.
Experiment [9] in a line: Luminescence Cell-Based Dose Retest to Confirm Inhibitors of Cancer Stem Cells. [Related pubchem assays (depositor defined):AID2717, AID2721]. It is filed as functional. As to conditions: Homo sapiens.
For experiment [10], the target named is T5, Rac GTPase-activating protein 1 (Homo sapiens, UniProt Q9H0H5).
T5 sequence (Q9H0H5 whole entry): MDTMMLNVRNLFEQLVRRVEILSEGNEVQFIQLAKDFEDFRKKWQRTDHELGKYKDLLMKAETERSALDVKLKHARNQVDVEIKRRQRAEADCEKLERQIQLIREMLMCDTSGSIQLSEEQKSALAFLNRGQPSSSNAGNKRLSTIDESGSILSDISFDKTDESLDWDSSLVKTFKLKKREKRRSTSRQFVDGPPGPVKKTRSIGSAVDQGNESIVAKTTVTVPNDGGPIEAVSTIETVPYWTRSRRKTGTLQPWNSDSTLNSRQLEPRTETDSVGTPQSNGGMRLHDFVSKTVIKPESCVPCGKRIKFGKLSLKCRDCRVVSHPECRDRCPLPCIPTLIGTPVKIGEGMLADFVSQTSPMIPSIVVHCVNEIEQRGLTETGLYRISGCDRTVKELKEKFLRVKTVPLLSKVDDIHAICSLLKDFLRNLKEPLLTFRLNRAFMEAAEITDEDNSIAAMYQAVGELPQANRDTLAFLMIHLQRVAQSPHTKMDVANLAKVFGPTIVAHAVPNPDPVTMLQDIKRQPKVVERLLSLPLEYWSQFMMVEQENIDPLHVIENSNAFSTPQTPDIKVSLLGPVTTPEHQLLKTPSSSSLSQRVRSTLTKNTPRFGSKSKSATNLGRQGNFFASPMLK
The experiment in a line: MgcRacGAP GTPase-activating activity inhibitors, confirmation, biochemical, ADP Hunter fluorescence, primary and confirmatory (AID 624330). Type of experiment: functional.

A short description of experiment [11]: inhibitors of firefly luciferase expression or activity, dose response, H4 neuroglioma cells, luminescence (AID 1990). Type of experiment: functional, cell-based.
The nature of experiment [12]: Luminescence Cell-Based Dose Response HTS to Identify Inhibitors of 5'UTR Stem-Loop Driven Prion Protein mRNA Translation in H4 Neuroglioblastoma Cells. [Related pubchem assays: 1827 (Project Summary), 1813 (Primary HTS)]. It is filed as functional.
Experiment [13] can be described thus: inhibitors of SNCA 5'UTR-driven reporter translation, confirmation, H4 neuroglioma cells, luminescence (AID 1988). Type of experiment: functional, cell-based.
Experiment [14] in a line: growth suppression of PTEN-null colon cells, dose response, cell-based, HCT116 PTEN knockout (AID 1047).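 Also: HCT116 colon tumor cells with PTEN knocked out; cells exposed to compound for 60 hours before readout; potency for loss of cell viability measured by luminescence.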 Type of experiment: functional.
Experiment [15] is described as follows: growth suppression of beta-catenin-knockout colon cells, dose response, cell-based, HCT116, human colon tumor (AID 1045).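 Also: HCT116 colon tumor cells with beta catenin knocked out; cells exposed to compound for 60 hours.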 It is filed as functional.

Each structure is given as a SMILES string. Activity calls are given as the source filed them. Where only a bound is given, the exact number is not on record here.

For orientation: AC50 means the concentration at which the activity in the assay is half-maximal. In the case of `Cc1ccc(S(=O)(=O)N[C@H]2C=C[C@H](CC(=O)N3CCC(Cc4ccccc4)CC3)O[C@H]2CO)cc1`, the figures for the AC50 in [1] and in [2] were 69.4 µM (active) and 34.3 µM (active), respectively.

What is called IC50 is the midpoint of a concentration-inhibition curve. Take `CCNc1nc(NCC)nc(N(C)N)n1`: the IC50 on Nonstructural protein 1 is 12.7 µM (active). On Cytochrome P450 2C19, the AC50 is 0.00141 µM (inconclusive).

For the compound `CCOC(=O)N/N=C\c1ccc([N+](=O)[O-])s1`, in the experiment “cells”, the IC50 was 34 µM (active).

With `Cc1cccc(OCCCCc2c(C)n[nH]c2C)c1`, in “cells”, the IC50 was 9.67 µM (active).

In general, EC50 refers to the midpoint of the concentration-response curve. Regarding `CCc1ccc(NC(=O)/C(C#N)=C/c2cc3ccc(C)cc3nc2N2CCOCC2)cc1`, the half-maximal effective concentration (EC50) was 47.9 µM (active) in experiment [3] and 113 µM (active) in experiment [4].

As for `O=C(CCCCn1c(=O)c2ccccc2n(Cc2ccccc2F)c1=O)NC1CCN(Cc2ccccc2)CC1`, the IC50 is > 20 µM (inactive) on Bcl-2-related protein A1, 11.3 µM (active) in [5] and 5.47 µM (active) in experiment [6].

In the case of `O=C(NNc1nc2cc3c(cc2s1)OCCO3)c1ccccc1`, the IC50 in the experiment “cells” is 48.3 µM (active).

As to `CCN=C(S)N=Nc1c(O)[nH]c2ccc(C(C)C)cc12`, the results for the IC50 (on Bcl-2-related protein A1; in experiment [5]; in [6]) were > 20 µM (inactive), 6.7 µM (active) and 2.49 µM (active), respectively.

Turning to `O=C(CCCCn1c(=O)c2ccccc2n(Cc2ccccc2)c1=O)NC1CCN(Cc2ccccc2)CC1`, the EC50 is 0.695 µM (active) in experiment [7] and > 60 µM (not active) in experiment [8]. Moreover, the IC50 is > 20 µM (inactive) on Bcl-2-related protein A1, 9.28 µM (active) in experiment [5] and 5.17 µM (active) in [6].

On to `Cc1cccc(NC(=O)c2cc3ccccc3o2)c1`, for which the IC50 in “cells” is 40.5 µM (active).

`COC(=O)c1ccc(-n2c(CCC(=O)O)ccc2-c2ccccc2)cc1`: the EC50 in experiment [3] and in [4] was > 300 µM (not active) in each case.

Take `CN(C)c1ccc(/C=C2\N=C(C(C)(C)C)OC2=O)cc1`: the EC50 in experiment [3] was 7.17 µM (active); in experiment [4], 22.3 µM (inconclusive). Also, the IC50 in the experiment “cells” is 11.3 µM (active).

In the case of `CC1(C)SC2C(C(=O)O)N=C(Cc3ccccc3)N2C1C(=O)O` (stereo unspecified), the IC50 at Nonstructural protein 1 was 12.2 µM (active).

With `N=C1c2ccccc2CN1NC(=O)CC12CC3CC(CC(C3)C1)C2`, the EC50 in experiment [3] and in [4] was > 300 µM (not active) in each case.

As to `COCCN=C(S)N=Nc1c(O)[nH]c2c(C)cc(C)cc12`, the results for the IC50 (on Bcl-2-related protein A1; in experiment [5]; in experiment [6]) were > 20 µM (inactive), 6.28 µM (active) and 0.561 µM (active), respectively.

In the case of `Cc1nn(C(C)C(=O)N2CCOCC2)c(=O)c2nn(-c3ccccc3)c(C)c12` (stereo unspecified), the EC50 in experiment [3] and in experiment [4] was > 300 µM (not active) throughout.

As for `COc1ccc(-c2sc3ccccc3c2-c2ccc(OCCN3CCOCC3)cc2)cc1`, the AC50 in [9] is 0.842 µM (active). Further, the values for the IC50 (at Bcl-2-related protein A1; in [5]; in experiment [6]) were > 20 µM (inactive), 15.1 µM (active) and > 20 µM (inactive), respectively.

`C=CCOc1ccc(CNc2ccc(NC(=O)CCC)cc2)cc1OCC`: at Nonstructural protein 1, the IC50 was > 100 µM (active).

As for `Cc1ccc(/C=N/NC(=O)c2ccncc2)o1`, the IC50 in the experiment “cells” is 1.18 µM (active).

Take `CCOC(=O)/C(C#N)=C1/C(=O)N(Cc2ccccc2)c2ccccc21`: the IC50 is 99.6 µM (active) on Nonstructural protein 1 and 61 µM (active) in [10].

For `C#CCOCCOCCOCCNc1nc(N2CCN(C(=O)[C@H](CCCCN)n3cc(CN)nn3)CC2)nc(N2CCN(C(=O)[C@H](CCC(=O)O)n3cc([C@@H](N)CCCCN)nn3)CC2)n1`, the IC50 was > 20 µM (inactive) at Bcl-2-related protein A1, 2.85 µM (active) in experiment [5], 2.79 µM (active) in [6] and 190 µM (active) in [10].

In the case of `CC1(C)Cc2c(sc(NC(=O)COc3ccc(Cl)cc3Cl)c2C(N)=O)C(C)(C)N1`, the EC50 in experiment [11] is 17.3 µM (active); in experiment [12], 18.7 µM (active); in experiment [13] it was > 120 µM (not active). For the same compound, the figures for the IC50 (at Bcl-2-related protein A1; in experiment [5]; in experiment [6]) were > 20 µM (inactive), 4.55 µM (active) and 2.86 µM (active), respectively.

For the compound `O=C1c2cccc3cccc(c23)C(=O)N1CCN1CCN(CC(O)COc2ccc3ccccc3c2)CC1` (stereo unspecified), the half-maximal effective concentration (EC50) was 12 µM (active) in [14] and 9.47 µM (active) in experiment [15]. Further, the AC50 in experiment [9] was 5.08 µM (active). Moreover, the values for the IC50 (at Bcl-2-related protein A1; in experiment [5]; in experiment [6]) were > 20 µM (inactive), 2.49 µM (active) and 3.02 µM (active), respectively.

Consider `COc1cccc(NC(=O)N(C)C[C@@H]2OCc3ccccc3-c3c(n(C)c4ccccc34)C(=O)N([C@@H](C)CO)C[C@@H]2C)c1`, for which the AC50 in experiment [1] and in experiment [2] was < 0.26 µM (active) each time.

Take `O=C(CNCc1ccccn1)Nc1cc(S(=O)(=O)N2CCCCC2)ccc1Cl`: on Nonstructural protein 1, the IC50 is 6.83 µM (active).

These data come from ChEMBL document CHEMBL1201862, “PubChem BioAssay data set” (2004).
